Assay results: patent EP0938471B1, “THE PREPARATION AND USE OF ORTHO-SULFONAMIDO ARYL HYDROXAMIC ACIDS AS MATRIX METALLOPROTEINASE AND TACE INHIBITORS” (priority 1996, dated 1998)
Counter-ions that a name gives are not always drawn. Like-named read-outs stand apart in the source and are kept apart here.

Legend:
Assay type in all cases: biochemical
MMP-9 = MMP-9 (Homo sapiens, UniProt P14780); assay: MMP-9 inhibition (thiopeptide or fluorescent peptide substrate assay)
Protocol: The enzyme activity is measured by the rate of the color increase. The thiopeptide substrate is made up fresh as a 20 mM stock in 100% DMSO and the DTNB is dissolved in 100% DMSO as a 100 mM stock and stored in the dark at room temperature. Both the substrate and DTNB are diluted together to 1 mM with substrate buffer (50 mM HEPES pH 7.5, 5 mM CaCl2) before use. […] Alternatively, a fluorescent peptide substrate is used. In this assay, the peptide substrate contains a fluorescent group and a quenching group. Upon cleavage of the substrate by an MMP, the fluorescence that is generated is quantitated on the fluorescence plate reader. […] The substrate is dissolved in methanol and stored frozen in 1 mM aliquots. For the assay, substrate and enzymes are diluted in HCBC buffer to the desired concentrations. Compounds are added to the 96 well plate containing enzyme and the reaction is started by the addition of substrate. […] For either the thiopeptide or fluorescent peptide assays, the slope of the line is calculated and represents the reaction rate. […] The mean (x±sem) of the control rate is calculated and compared for statistical significance (p<0.05) with drug-treated rates using Dunnett's multiple comparison test.

MMP-1 = molecular target: T1, MMP-1 (Homo sapiens, UniProt P03956); assay: MMP-1 inhibition (thiopeptide or fluorescent peptide substrate assay); conditions: read-out: MMP-1 IC50
T1 sequence (P03956 100-469): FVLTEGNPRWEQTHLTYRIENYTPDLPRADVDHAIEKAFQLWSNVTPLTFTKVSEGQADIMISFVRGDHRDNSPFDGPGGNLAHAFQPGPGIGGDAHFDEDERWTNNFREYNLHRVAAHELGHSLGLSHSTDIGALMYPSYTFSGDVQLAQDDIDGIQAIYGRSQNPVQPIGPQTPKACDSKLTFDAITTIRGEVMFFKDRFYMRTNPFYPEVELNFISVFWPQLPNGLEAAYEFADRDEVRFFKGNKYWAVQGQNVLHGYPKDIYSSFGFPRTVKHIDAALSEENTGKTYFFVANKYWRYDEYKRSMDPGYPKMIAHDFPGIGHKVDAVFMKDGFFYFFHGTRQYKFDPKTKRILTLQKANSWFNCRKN
Protocol: The enzyme activity is measured by the rate of the color increase. The thiopeptide substrate is made up fresh as a 20 mM stock in 100% DMSO and the DTNB is dissolved in 100% DMSO as a 100 mM stock and stored in the dark at room temperature. Both the substrate and DTNB are diluted together to 1 mM with substrate buffer (50 mM HEPES pH 7.5, 5 mM CaCl2) before use. The stock of enzyme is diluted with assay buffer (50 mM HEPES, pH 7.5, 5 mM CaCl2, 0.02% Brij) to the desired final concentration.
Alternatively, a fluorescent peptide substrate is used. In this assay, the peptide substrate contains a fluorescent group and a quenching group. Upon cleavage of the substrate by an MMP, the fluorescence that is generated is quantitated on the fluorescence plate reader. The assay is run in HCBC assay buffer (50mM HEPES, pH 7.0, 5 mM Ca^+2, 0.02% Brij, 0.5% Cysteine), with human recombinant MMP-1, MMP-9, or MMP-13. The substrate is dissolved in methanol and stored frozen in 1 mM aliquots. For the assay, substrate and enzymes are diluted in HCBC buffer to the desired concentrations. Compounds are added to the 96 well plate containing enzyme and the reaction is started by the addition of substrate.
For either the thiopeptide or fluorescent peptide assays, the slope of the line is calculated and represents the reaction rate. The linearity of the reaction rate is confirmed (r^2 >0.85). The mean (x±sem) of the control rate is calculated and compared for statistical significance (p<0.05) with drug-treated rates using Dunnett's multiple comparison test.

MMP-13 = MMP-13 (Homo sapiens, UniProt P45452); assay: MMP-13 inhibition (thiopeptide or fluorescent peptide substrate assay)
TACE = TACE (Homo sapiens, UniProt P78536); assay: TACE inhibition (fluorescent peptidyl substrate)
Chain of TACE (P78536 215-824): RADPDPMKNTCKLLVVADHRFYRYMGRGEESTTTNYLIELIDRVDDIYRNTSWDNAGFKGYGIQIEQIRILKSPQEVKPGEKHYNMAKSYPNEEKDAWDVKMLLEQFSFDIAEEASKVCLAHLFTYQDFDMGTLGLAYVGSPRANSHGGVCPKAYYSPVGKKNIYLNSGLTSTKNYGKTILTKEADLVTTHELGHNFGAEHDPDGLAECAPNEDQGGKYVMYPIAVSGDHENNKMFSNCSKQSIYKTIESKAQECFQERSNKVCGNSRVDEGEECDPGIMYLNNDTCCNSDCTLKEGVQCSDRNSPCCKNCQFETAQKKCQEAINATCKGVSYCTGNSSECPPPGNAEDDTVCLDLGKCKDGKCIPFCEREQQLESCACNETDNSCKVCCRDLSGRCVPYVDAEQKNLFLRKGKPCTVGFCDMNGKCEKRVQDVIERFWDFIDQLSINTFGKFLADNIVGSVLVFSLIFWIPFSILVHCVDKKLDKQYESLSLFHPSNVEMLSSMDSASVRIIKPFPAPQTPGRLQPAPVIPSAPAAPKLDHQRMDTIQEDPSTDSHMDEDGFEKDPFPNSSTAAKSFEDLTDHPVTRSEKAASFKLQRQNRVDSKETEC
Protocol: Using 96-well black microtiter plates, each well receives a solution composed of 10 µL TACE (Immunex, final concentration 1µg/mL), 70µL Tris buffer, pH 7.4 containing 10% glycerol (final concentration 10 mM), and 10 µL of test compound solution in DMSO (final concentration 1µM, DMSO concentration <1%) and incubated for 10 minutes at room temperature.
The reaction is read (excitation 340 nm, emission 420 nm) for 10 min. and the increase in fluorescence over time is plotted as a linear line. The slope of the line is calculated and represents the reaction rate.
The linearity of the reaction rate is confirmed (r^2 >0.85). The mean (x±sem) of the control rate is calculated and compared for statistical significance (p<0.05) with drug-treated rates using Dunnett's multiple comparison test.

Chain of MMP-9 (P14780 94-707): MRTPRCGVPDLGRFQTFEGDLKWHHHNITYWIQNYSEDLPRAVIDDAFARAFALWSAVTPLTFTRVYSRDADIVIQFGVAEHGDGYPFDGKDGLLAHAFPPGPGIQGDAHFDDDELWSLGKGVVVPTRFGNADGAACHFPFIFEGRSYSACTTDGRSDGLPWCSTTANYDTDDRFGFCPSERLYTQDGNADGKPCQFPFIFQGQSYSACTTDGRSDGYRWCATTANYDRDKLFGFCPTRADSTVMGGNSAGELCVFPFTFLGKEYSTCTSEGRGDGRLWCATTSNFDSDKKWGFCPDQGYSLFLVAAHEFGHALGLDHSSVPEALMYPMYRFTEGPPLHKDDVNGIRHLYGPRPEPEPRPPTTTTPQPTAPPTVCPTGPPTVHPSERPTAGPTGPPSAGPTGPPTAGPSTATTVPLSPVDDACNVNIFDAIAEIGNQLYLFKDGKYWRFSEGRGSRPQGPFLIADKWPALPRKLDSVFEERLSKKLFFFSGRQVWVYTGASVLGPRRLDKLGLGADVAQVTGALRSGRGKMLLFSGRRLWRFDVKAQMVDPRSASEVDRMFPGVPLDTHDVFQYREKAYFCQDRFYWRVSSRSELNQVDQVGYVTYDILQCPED

3-Methyl-2-[4-(pyridin-4-yloxy)-benzensulfonylamino]-N-hydroxy-benzamide [Example 417]
IC50 (MMP-9; read-out: MMP-9 IC50): 6.8 nM | IC50 (MMP-1): 3240 nM

COc1ccc(S(=O)(=O)N(C)c2c(CN3CCN(C)CC3)cccc2C(=O)NO)cc1 [Example 194, N-Hydroxy-2-[(4-methoxybenzenesulfonyl)-methylamino]-3-(4-methylpiperazin-1-ylmethyl)-benzamide]
IC50 (MMP-13; read-out: MMP-13 IC50): 12 nM | IC50 (TACE; read-out: TACE IC50): 154 nM | IC50 (MMP-1): 306 nM

CCN(CC)Cc1cc(C)c(N(Cc2ccccc2)S(=O)(=O)c2ccc(OC)cc2)c(C(=O)NO)c1 [Example 282, 2-[Benzyl-(4-methoxy-benzenesulfonyl)-amino]-5-diethylaminomethyl-N-hydroxy-3-methyl-benzamide]
IC50 (MMP-13; read-out: MMP-13 IC50): 113 nM | inhibition at 1 µM (TACE; at 1µM concentration): 44% | IC50 (MMP-1): 1050 nM

CCCOc1ccc(S(=O)(=O)N(Cc2ccccc2)c2c(C)cc(C)cc2C(=O)NO)cc1 [Example 303, 2-[Benzyl-(4-propoxy-benzenesulfonyl)-amino]-N-hydroxy-3,5-dimethyl-benzamide]
IC50 (MMP-9; read-out: MMP-9 IC50): 64 nM | IC50 (MMP-13; read-out: MMP-13 IC50): 104 nM | IC50 (MMP-1): 2780 nM

COc1ccc(S(=O)(=O)N(Cc2ccccc2)c2c(OCC(=O)NO)cccc2C(=O)NO)cc1 [Example 54, 2-[Benzyl-(4-methoxy-benzenesulfonyl)-amino]-N-hydroxy-3-hydroxycarbamoylmethoxy-benzamide]
IC50 (MMP-9; read-out: MMP-9 IC50): 3 nM | IC50 (MMP-13): 4 nM | IC50 (MMP-1): 24 nM

COc1ccc(S(=O)(=O)N(Cc2cccnc2)c2c(C(=O)NO)cc(OC)c(OC)c2OC)cc1 [Example 158, N-Hydroxy-3,4,5-trimethoxy-2-[(4-methoxy-benzenesulfonyl)-pyridin-3-ylmethyl-amino]-benzamide]
IC50 (MMP-9; read-out: MMP-9 IC50): 11 nM | IC50 (MMP-13; read-out: MMP-13 IC50): 62 nM | IC50 (MMP-1): > 1000 nM

COc1ccc(S(=O)(=O)N(Cc2ccccc2)c2c(C)cccc2C(=O)NO)cc1 [Example 28, 2-[Benzyl-(4-methoxy-benzenesulfonyl)-amino]-N-hydroxy-3-methyl-benzamide]
IC50 (MMP-13): 50 nM | IC50 (TACE; read-out: TACE IC50): 460 nM

COc1ccc(S(=O)(=O)N2CCCOc3cccc(C(=O)NO)c32)cc1 [Example 165, 5-(4-Methoxy-benzenesulfonyl)-2,3,4,5-tetrahydro-1,5-benzoxazepine-6-carboxylic acid hydroxyamide]
IC50 (MMP-9; read-out: MMP-9 IC50): 286 nM | IC50 (MMP-13; read-out: MMP-13 IC50): 350 nM

COc1ccc(S(=O)(=O)N(Cc2cccnc2)c2c(C)cc(-c3cccc(C(F)(F)F)c3)cc2C(=O)NO)cc1 [Example 406, 4-[(4-Methoxy-benzenesulfonyl)-pyridin-3-ylmethyl-amino]-5-methyl-3'-trifluoromethyl-biphenyl-3-carboxylic acid hydroxyamide hydrochloride salt]
IC50 (MMP-9; read-out: MMP-9 IC50): 1.1 nM

COc1ccc(S(=O)(=O)N(Cc2ccccc2)c2ccccc2C(=O)NO)cc1 [Example 23, 2-[Benzyl-(4-methoxy-benzenesulfonyl)-amino]-N-hydroxy-benzamide]
IC50 (MMP-9): 650 nM | IC50 (TACE; read-out: TACE IC50): > 1000 nM | IC50 (MMP-1): 639 nM

Cc1cccc(C(=O)NO)c1N(Cc1ccc(Cl)cc1)S(=O)(=O)c1ccc(-c2ccccn2)s1 [Example 407, 2-[(4-Chloro-benzyl)-(5-pyridin-2-yl-thiophene-2-sulfonyl)-amino]-N-hydroxy-3-methyl-benzamide]
IC50 (MMP-9; read-out: MMP-9 IC50): 199 nM | IC50 (MMP-13; read-out: MMP-13 IC50): 35 nM | IC50 (MMP-1): 1690 nM

COc1ccc(S(=O)(=O)N2CCCCOc3cccc(C(=O)NO)c32)cc1 [Example 167, 6-(4-Methoxy-benzenesulfonyl)-3,4,5,6-tetrahydro-2H-1,6-benzoxazocine-7-carboxylic acid hydroxyamide]
IC50 (MMP-9; read-out: MMP-9 IC50): 42 nM | IC50 (MMP-13; read-out: MMP-13 IC50): 178 nM

COc1ccc(S(=O)(=O)N(Cc2cccnc2)c2ccccc2C(=O)NO)cc1 [Example 85, N-Hydroxy-2-[(4-methoxy-benzenesulfonyl)-pyridin-3-ylmethyl-amino]-benzamide]
IC50 (MMP-9; read-out: MMP-9 IC50): 663 nM | IC50 (TACE; read-out: TACE IC50): > 1000 nM

COC(=O)c1cccc(C(=O)NO)c1N(Cc1cccnc1)S(=O)(=O)c1ccc(OC)cc1 [Example 369, N-Hydroxy-2-[(4-methoxy-benzenesulfonyl)-pyridin-3-ylmethyl-amino]-isophthalamic acid methyl ester]
IC50 (MMP-9; read-out: MMP-9 IC50): 6.4 nM | IC50 (TACE): 38 nM | IC50 (MMP-1): 207 nM

COc1ccc(S(=O)(=O)N(Cc2cccnc2)c2c(C)cc(-c3ccsc3)cc2C(=O)NO)cc1 [Example 398, N-Hydroxy-2-[(4-methoxy-benzenesulfonyl)-pyridin-3-ylmethyl-amino]-3-methyl-5-thiophen-3-yl-benzamide hydrochloride salt]
IC50 (MMP-9; read-out: MMP-9 IC50): 2 nM | IC50 (TACE; read-out: TACE IC50): 56 nM | IC50 (MMP-1): 85 nM

CCCCC#Cc1cc(C)c(N(Cc2ccccc2)S(=O)(=O)c2ccc(OC)cc2)c(C(=O)NO)c1 [Example 77, 2-[Benzyl-(4-methoxy-benzenesulfonyl)-amino]-5-hex-1-ynyl-N-hydroxy-3-methyl-benzamide]
IC50 (MMP-9; read-out: MMP-9 IC50): 131 nM

COc1ccc(S(=O)(=O)N(Cc2cccnc2)c2c(C)cc(-c3ccccc3)cc2C(=O)NO)cc1 [Example 397, 4-[(4-Methoxy-benzenesulfonyl)-pyridin-3-ylmethyl-amino]-5-methyl-biphenyl-3-carboxylic acid hydroxyamide hydrochloride salt]
IC50 (MMP-9): 3 nM | IC50 (TACE): 64 nM

COc1ccc(S(=O)(=O)N(Cc2ccccc2)c2c(C(=O)NO)ccc(Cl)c2C)cc1 [Example 102, 2-[Benzyl-(4-methoxy-benzenesulfonyl)-amino]-4-chloro-N-hydroxy-3-methyl-benzamide]
IC50 (MMP-9; read-out: MMP-9 IC50): 29 nM | IC50 (TACE; read-out: TACE IC50): 162 nM | IC50 (MMP-1): 314 nM

COc1ccc(S(=O)(=O)N(Cc2ccccc2)c2c(OC)cccc2C(=O)NO)cc1 [Example 101, 2-[Benzyl-(4-methoxy-benzenesulfonyl)-amino]-N-hydroxy-3-methoxy-benzamide]
IC50 (MMP-9): 23 nM | IC50 (TACE; read-out: TACE IC50): 422 nM | IC50 (MMP-1): 267 nM

COc1ccc(S(=O)(=O)N(Cc2ccccc2)c2c(C(=O)NO)cc(OC)c(OC)c2OC)cc1 [Example 156, 2-[Benzyl-(4-methoxy-benzenesulfonyl)-amino]-N-hydroxy-3,4,5-trimethoxy-benzamide]
IC50 (MMP-9; read-out: MMP-9 IC50): 104 nM | IC50 (MMP-13; read-out: MMP-13 IC50): 134 nM | IC50 (MMP-1): > 1000 nM

Cc1ccc(CN(c2c(C)cccc2C(=O)NO)S(=O)(=O)c2ccc(-c3ccccn3)s2)cc1C [Example 408, 2-[(3,4-Dimethyl-benzyl)-(5-pyridin-2-yl-thiophene-2-sulfonyl)-amino]-N-hydroxy-3-methyl-benzamide]
IC50 (MMP-9; read-out: MMP-9 IC50): 731 nM | IC50 (MMP-13; read-out: MMP-13 IC50): 148 nM | IC50 (MMP-1): 3450 nM

COc1ccc(S(=O)(=O)N(Cc2ccccc2)c2c(Cl)cccc2C(=O)NO)cc1 [Example 24, 2-[Benzyl-(4-methoxy-benzenesulfonyl)-amino]-3-chloro-N-hydroxy-benzamide]
IC50 (MMP-9; read-out: MMP-9 IC50): 31 nM | IC50 (MMP-1): 398 nM

COc1ccc(S(=O)(=O)N(Cc2ccc(N3CCN(C)CC3)cc2)c2c(C)cccc2C(=O)NO)cc1 [Example 382, N-Hydroxy-2-{(4-methoxy-benzenesulfonyl)-[4-(4-methyl-piperazin-1-yl)-benzyl]-amino}-3-methyl-benzamide]
IC50 (MMP-9; read-out: MMP-9 IC50): 6.5 nM | IC50 (MMP-13): 20 nM | IC50 (TACE): 146 nM

COc1ccc(S(=O)(=O)N2Cc3ccccc3COc3cccc(C(=O)NO)c32)cc1 [Example 166, 12-(4-Methoxy-benzenesulfonyl)-11,12-dihydro-6H-dibenz[b,f][1,4]oxazocine-1-carboxylic acid hydroxyamide]
IC50 (MMP-9; read-out: MMP-9 IC50): 203 nM | IC50 (MMP-13; read-out: MMP-13 IC50): > 300 nM
